This note sets out measurements from article PMC9112895, “Selective Inhibition of Plasmodium falciparum ATPase 6 by Artemisinins and Identification of New Classes of Inhibitors after Expression in Yeast” (Antimicrobial Agents and Chemotherapy, 2022).

For one assay, the target named is PfATP6 (Plasmodium falciparum, UniProt Q08853). Put plainly: cell-based. The format is cell-based. More on the design: pUGpd containing the yeast-optimized coding region of PfATP6 from Plasmodium falciparum; expressed in transfected cells; host or cells: Saccharomyces cerevisiae K667 and K667Δpdr5::HIS. As for the experimental part: The screening assay used here was developed from the protocol used by Pulcini et al. ([13]). A single colony of the yeast strain to be screened was picked and grown in 5 mL of selective medium until stationary phase was reached. The culture was diluted 100-fold in ampicillin-supplemented yeast extract-peptone-dextrose (YPD) medium to an OD at 620 nm (OD620) equivalent to that of lag phase. YPD medium was supplemented with an appropriate concentration of calcium, depending on the transformed strain. […] The optimal calcium concentration was periodically monitored and, if necessary, adjusted using a calcium concentration range of 10 to 30 mM. A final volume of 200 μL of the yeast culture was added to each well of a 96-well plate, with 5 technical replicates included per inhibitor. All inhibitors were dissolved in dimethyl sulfoxide (DMSO) unless otherwise stated. […] The 96-well plates were incubated at 30°C for 42 h. The yeast growth was estimated from the absorbance at 620 nm in a Tecan plate reader. Growth was normalized with the no-drug control to present data as percent growth. The data collected were analyzed using GraphPad Prism v9.0 (GraphPad software, San Diego, CA, U.S.A).
Sequence of PfATP6 (Q08853 whole entry): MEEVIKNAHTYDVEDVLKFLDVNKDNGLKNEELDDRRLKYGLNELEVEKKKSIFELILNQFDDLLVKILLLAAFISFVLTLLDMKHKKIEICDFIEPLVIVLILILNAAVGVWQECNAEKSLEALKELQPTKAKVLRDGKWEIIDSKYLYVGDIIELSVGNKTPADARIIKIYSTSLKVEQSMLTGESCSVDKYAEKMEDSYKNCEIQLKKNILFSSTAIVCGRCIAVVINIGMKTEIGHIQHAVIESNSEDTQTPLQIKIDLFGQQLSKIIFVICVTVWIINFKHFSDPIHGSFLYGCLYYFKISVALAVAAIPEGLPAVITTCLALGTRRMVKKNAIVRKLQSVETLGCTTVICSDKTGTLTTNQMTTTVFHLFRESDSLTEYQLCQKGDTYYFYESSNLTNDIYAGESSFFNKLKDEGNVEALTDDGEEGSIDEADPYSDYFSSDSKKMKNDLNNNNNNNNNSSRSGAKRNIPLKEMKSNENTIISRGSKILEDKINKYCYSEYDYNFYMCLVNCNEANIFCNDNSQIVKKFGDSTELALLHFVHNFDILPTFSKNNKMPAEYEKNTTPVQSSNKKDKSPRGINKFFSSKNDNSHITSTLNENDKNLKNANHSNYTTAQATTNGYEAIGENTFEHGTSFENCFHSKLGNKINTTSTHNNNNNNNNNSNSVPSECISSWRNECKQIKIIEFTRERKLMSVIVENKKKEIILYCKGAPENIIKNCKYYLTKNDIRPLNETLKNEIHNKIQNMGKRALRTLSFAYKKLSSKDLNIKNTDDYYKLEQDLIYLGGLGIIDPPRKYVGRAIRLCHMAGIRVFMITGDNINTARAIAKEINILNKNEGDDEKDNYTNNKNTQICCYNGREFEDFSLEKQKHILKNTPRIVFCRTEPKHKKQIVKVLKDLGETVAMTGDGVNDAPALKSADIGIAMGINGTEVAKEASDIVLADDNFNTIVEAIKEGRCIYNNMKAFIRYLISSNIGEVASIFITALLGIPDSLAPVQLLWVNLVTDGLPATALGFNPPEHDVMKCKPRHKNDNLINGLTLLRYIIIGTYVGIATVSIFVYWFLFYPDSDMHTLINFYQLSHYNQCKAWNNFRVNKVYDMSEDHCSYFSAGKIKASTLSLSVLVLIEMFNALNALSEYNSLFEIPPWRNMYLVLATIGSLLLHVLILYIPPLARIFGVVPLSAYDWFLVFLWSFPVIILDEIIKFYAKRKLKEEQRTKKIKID

Another assay concerns the target T1, A623E/S769N PfATP6 (Plasmodium falciparum, UniProt Q08853, A623E/S769N).
T1 construct: expressed in transfected cells; host or cells: Saccharomyces cerevisiae K667-derived strain
T1 sequence (Q08853 1-1228 A623E/S769N): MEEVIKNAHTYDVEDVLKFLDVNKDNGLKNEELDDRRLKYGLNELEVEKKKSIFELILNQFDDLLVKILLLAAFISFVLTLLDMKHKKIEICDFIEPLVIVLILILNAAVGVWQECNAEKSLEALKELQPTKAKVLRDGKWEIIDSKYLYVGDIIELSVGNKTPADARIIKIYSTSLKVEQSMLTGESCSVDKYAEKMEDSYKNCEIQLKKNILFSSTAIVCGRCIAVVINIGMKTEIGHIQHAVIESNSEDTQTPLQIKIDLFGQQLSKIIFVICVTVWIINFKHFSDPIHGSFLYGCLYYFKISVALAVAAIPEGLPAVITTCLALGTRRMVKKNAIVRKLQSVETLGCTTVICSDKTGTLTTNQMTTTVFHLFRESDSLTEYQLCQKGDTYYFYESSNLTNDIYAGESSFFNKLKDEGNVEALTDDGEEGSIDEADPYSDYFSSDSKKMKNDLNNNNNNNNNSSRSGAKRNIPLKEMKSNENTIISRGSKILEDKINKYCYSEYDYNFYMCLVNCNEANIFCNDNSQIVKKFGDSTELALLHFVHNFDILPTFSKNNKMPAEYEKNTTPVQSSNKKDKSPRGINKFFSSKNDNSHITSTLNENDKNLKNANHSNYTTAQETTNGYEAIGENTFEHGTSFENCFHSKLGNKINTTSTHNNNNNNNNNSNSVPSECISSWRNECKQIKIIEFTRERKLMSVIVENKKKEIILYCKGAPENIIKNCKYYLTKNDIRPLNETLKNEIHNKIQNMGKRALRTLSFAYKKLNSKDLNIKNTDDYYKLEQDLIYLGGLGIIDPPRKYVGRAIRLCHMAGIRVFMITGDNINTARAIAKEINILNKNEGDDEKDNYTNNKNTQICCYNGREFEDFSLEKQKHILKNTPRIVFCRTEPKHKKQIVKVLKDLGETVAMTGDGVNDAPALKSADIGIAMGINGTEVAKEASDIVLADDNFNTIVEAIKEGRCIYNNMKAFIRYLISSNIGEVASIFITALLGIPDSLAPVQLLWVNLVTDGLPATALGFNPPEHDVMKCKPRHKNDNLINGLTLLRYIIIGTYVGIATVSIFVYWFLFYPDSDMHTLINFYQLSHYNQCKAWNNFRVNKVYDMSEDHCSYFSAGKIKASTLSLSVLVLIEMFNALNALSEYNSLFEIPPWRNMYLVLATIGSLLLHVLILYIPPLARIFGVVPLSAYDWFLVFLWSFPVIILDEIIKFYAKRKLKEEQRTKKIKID
Put plainly: Yeast whole-cell assay, PfATP6 A623E/S769N double mutant. It is filed as cell-based. Conditions: read-out: IC50 (mean ± SD). How it is done:
Yeast transformations were performed using the method described by Gietz and Schiestl ([48]), and transformants were selected by an uracil auxotrophic marker. Transformations were confirmed by colony PCR. Both K667 and K667Δpdr5::HIS were transformed with the following plasmids: pUGpd plasmid as a vector-only control (derived from pRS316 [49]); br434 plasmid (derived from pRS316 [50]) containing the SERCA1a coding region from rabbit skeletal fast-twitch muscle (pbr434-SERCA1a); and pUGpd containing the yeast-optimized coding region of PfATP6 from Plasmodium falciparum (pUGpd-PfATP6). Site-directed mutagenesis was performed on the SERCA1a coding region to produce the mutation E255L in the protein. Mutations were also introduced into the PfATP6 coding region to produce mutations L263E, A623E, and S769N and the double mutation A623E/S769N ([13]).
The screening assay used here was developed from the protocol used by Pulcini et al. ([13]). […] The optimal calcium concentration was periodically monitored and, if necessary, adjusted using a calcium concentration range of 10 to 30 mM. […] The yeast growth was estimated from the absorbance at 620 nm in a Tecan plate reader. […] The data collected were analyzed using GraphPad Prism v9.0 (GraphPad software, San Diego, CA, U.S.A).

Regarding `CC(=O)C1=C(O)[C@@H]2[C@H]3c4c[nH]c5cccc(c45)C[C@H]3C(C)(C)N2C1=O` [CPA, cyclopiazonic acid], the “approximate IC10” value at PfATP6 (fitness cost assays, drug pressure) was approximately 5 µM. The IC80 at PfATP6 (read-out: approximate yeast IC80) is approximately 5 µM. At A623E/S769N PfATP6, the IC50 came out at 6.61 µM.

The IC80 is the point of the concentration-response curve where the effect stands at 80%. Broadly, the IC50 is the midpoint of a concentration-inhibition curve.
